Patent US8835471B2, “Use of angiotensin II agonists” (Vicore Pharma AB, priority 2010, dated 2014)

Key:
[1] = tested on: Balb/C mice with spinal cord contusion lesion; experiment: Spinal cord contusion injury, locomotor recovery scored with the Basso Mouse Scale (BMS); assay type: in vivo
Source text: In studies of spinal cord injury in mice, the recovery of the mice in the studies may be monitored and quantified using the Basso Mouse Scale (Basso D. M., et al., Journal of Neurotrauma, Volume 23, No. 5, 635-659 (2006), the entirety of which is hereby incorporated by reference). Using this method, each mouse in such studies may be awarded a score based on the criteria outlined in Table 1 and FIG. 1 of Basso et al., supra,
Spinal cord injury and cortical spinal tract (CST) tracing were performed as described in (Boato et al. 2010). […] A gelfoam patch containing 1 μM the compound of Example 1(i) was then placed on top of the perforated dura (only in the second experiment, see Example 3), the muscles were sutured and the back skin closed with wound clips. Recovery of function after SCI was determined by scoring the locomotor hindlimb performance in the open field with the BMS, a 0-9 rating system based on the BBB scale and specifically designed for the mouse (Basso D. M., et al., Journal of Neurotrauma, Volume 23, No. 5, 635-659 (2006)). Under blind conditions, investigator evaluated the mice over a 4-min time period daily. Before surgery, animals were acclimated to the open field and to handling to prevent fear and/or stress behaviours that could bias the locomotor assessment.

[2] = tested on: TrkB; experiment: TrkB mRNA expression by RT-qPCR in murine primary astrocytes; assay type: cell-based; settings: primary mouse astrocytes, FIG. 6b
Protocol: (§1) Total RNA from cells was extracted using NucleoSpin RNA II extraction kit including DNAse treatment to digest genomic DNA (Macherey & Nagel, Düren, Germany).
(§2) RNA concentration was measured spectrophotometrically at a wavelength of 260 nm. Purity was assessed by the quotient 260/280 nm.
(§3) 250 ng of cell-derived mRNA were reverse transcribed into complementary DNA using moloney murine leukaemia virus (M-MLV) reverse transcriptase, 5× M-MLV buffer, deoxy-NTPs, random primers and RNasin (reagents from Promega, Mannheim, Germany) at 37° C. for 60 min. In order to control for genomic DNA contaminations, RNA was additionally transcribed in the absence of M-MLV reverse transcriptase (RT minus control).
(§4) To measure gene expression, the transcribed cDNA was amplified by quantitative real-time PCR (Stratagen MX Pro, Agilent Technologies Sales & Services GmbH & Co. KG, Waldbronn, Germany) in a final volume of 25 μl with the specific primers in commercial Power SYBR Green Master Mix (Applied Biosystems, Foster City, USA). Expression values were normalized against 18SrRNA expression.
(§5) All PCR primers were purchased from Operon Biotechnologies (Köln, Germany). […]

[3] = tested on: BDNF; experiment: BDNF mRNA expression by RT-qPCR in murine primary astrocytes; assay type: cell-based; settings: primary mouse astrocytes, FIG. 6a
Protocol: as §1, §2, §3, §4, §5

[4] = tested on: BDNF; experiment: BDNF mRNA expression by RT-qPCR in murine primary neurons; assay type: cell-based; settings: primary mouse neurons, FIG. 5a
Protocol: (§6) Primary neurons were isolated from brains of E15 mouse embryos.
as §1, §2, §3, §4, §5

[5] = tested on: viable neurons at the site of spinal cord injury; experiment: Histochemical stainings of injured spinal cords for Nissl (viable neurons); assay type: in vivo, mouse; settings: versus vehicle-treated animals; FIG. 8
Protocol: Animals were fixated as described above.
For staining of viable neurons the NeuroTrace® 500/525 green fluorescent Nissl stain (Invitrogen) was used. Briefly, after rehydration tissue slices were permeabilized in PBS containing 0.1% Triton X-100 for 10 minutes at room temperature. After washing NeuroTrace solution (100 fold diluted in PBS) was applied to the sections and incubated for 20 minutes at room temperature. After washing, samples were mounted for microscopy.
(§7) For measurement of signal intensity six sections per animal containing the lesion centre were analyzed. Micrographs were made in 15 rectangular boxes along the spinal cord covering the lesion and surrounding area. Using ImageJ software (NIH) pictures were converted into the 8-Bit grayscale and the signal intensity for each box was evaluated.

[6] = tested on: CST nerve fibres of mice with spinal cord injury; experiment: Cortical spinal tract tracing (BDA-labelled nerve fibres) after spinal cord injury; assay type: in vivo, mouse; settings: FIG. 4
Protocol: To anterogradely label the CST, 2 μl of biotinylated dextran amine (10% BDA) were then injected into the motor cortex. BDA-positive CST nerve fibres were visualized by 3,3′-diaminobenzidine staining and counted cranial and caudal to the lesion in serial sections and normalized to the number of labelled fibres in the dorsoventral diameter of the CST in cross sections at T4.
The bars in FIG. 2 represent the percentage of nerve fibres in the area between the end of the CST and the lesion centre (TE-LC) and in the area 0.1, 0.2 or 0.5 mm distal to the lesion centre (0.1, 0.2 or 0.5 mm from LC).
The potential for administration of the compound of Example 1(i) to mice to lead to regeneration of axonal fibres and bridging of the site of injury by reinnervation, following spinal cord injury, was examined. This involved tracking motor neurons by injection of BDA-labelled dextran into the motor cortex.

[7] = tested on: TrkB; experiment: Immunohistochemical stainings of injured spinal cords for TrkB; assay type: in vivo, mouse; settings: 4 week treatment; area of injury and peri-lesional tissue; versus vehicle; FIG. 7
Source text: Animal tissues were fixated by transcardial perfusion with normal saline followed by ice-cold 4% paraformaldehyde in 0.1 M phosphate-buffered saline. After perfusion, spinal cords were dissected and post-fixed overnight in the same fixative. The next day, the tissues were embedded in Jung-Tissue Freezing Medium (Leica Microsystems Nussloh, Germany) and cut longitudinally along the horizontal plane (40 μm thickness) into six series using a freezing microtome.
For immunostaining, samples were preincubated with 10% normal goat serum dissolved in PBS containing 0.5% Triton X-100 for 30 minutes at room temperature (RT). Incubation with primary antibody (Santa Cruz) was carried out overnight at 4° C. Following repeated washing steps with PBS, secondary antibodies (Jackson ImmunoResearch Laboratories) were applied for 2 hours at RT. After removal of unbound antibodies, sections were mounted.
as §7, with “center” for “centre”, “greyscale” for “grayscale”

[8] = tested on: TrkB; experiment: TrkB mRNA expression by RT-qPCR in murine primary neurons; assay type: cell-based; settings: primary mouse neurons, FIG. 5b
Protocol: as §6, §1, §2, §3, §4, §5

| Compound | Basso Mouse Scale score better than vehicle treated mice ([1]; Balb/C mice, treated once daily, versus vehicle, FIG. 1) | neurological deficits (Basso Mouse Score) compared to controls ([1]; Balb/C mice, treated once daily, day 2 and 3 and from day 9 until the end of the study, FIG. 1) | neurological outcome (BMS), difference between routes of administration ([1]; systemically (i.p.) versus gel placed at the site of injury, FIG. 2) | BMS subscore paw position of hindlimbs, recovery ([1]; versus vehicle treated mice, where almost completely absent, FIG. 3) | increase in BMS subscore paw position, statistical significance ([1]; versus vehicle, FIG. 3) | expression of TrkB ([2]; 10^−6M) | expression of BDNF ([3]; 10^−6M) | production of mRNA encoding BDNF [4] | Nissl positive cells (viable neurons) at the site of spinal cord injury [5] | number of BDA-labelled axons (CST nerve fibres) compared to controls [6] | TrkB immunoreactivity (signal intensity) in spinal cord [7] | production of mRNA encoding TrkB [8] | effect of co-treatment with AT2R-antagonist on TrkB expression induced by the compound of Example 1(i) ([2]; co-treatment with Example 1(i)) | effect of co-treatment with AT2R-antagonist on BDNF expression induced by the compound of Example 1(i) ([3]; co-treatment with Example 1(i)) | effect of AT2R-antagonist on BDNF mRNA increase induced by the compound of Example 1(i) ([4]; combination with Example 1(i)) | effect of AT2R-antagonist on TrkB mRNA increase induced by the compound of Example 1(i) ([8]; combination with Example 1(i)) |
| --- | --- | --- | --- | --- | --- | --- | --- | --- | --- | --- | --- | --- | --- | --- | --- | --- |
| CCCCOC(=O)NS(=O)(=O)c1sc(CC(C)C)cc1-c1ccc(Cn2ccnc2)cc1 [Example 1(i), N-Butyloxycarbonyl-3-(4-imidazol-1-ylmethylphenyl)-5-iso-butylthiophene-2-sulfonamide] | approximately 1.5 points | significantly reduced neurological deficits | no statistically significant difference | continuous recovery | statistically significant from day 7 until the end of the observational period | induced expression | induced expression | significantly increased | significant increase | significantly increased | strongly increased | significantly increased |  |  |  |  |
| Cc1cc(Cn2cnc3c2C[C@@H](C(=O)O)N(C(=O)C(c2ccccc2)c2ccccc2)C3)ccc1N(C)C [PD123319, reference compound] |  |  |  |  |  |  |  |  |  |  |  |  | abrogated | abrogated | completely blocked | completely blocked |
